Where two headings read alike, the source gives them in different places.
Assays:
[1] = tested on: WI38 cells; assay: Cytotoxicity on normal cell line WI38; assay type: cell-based, human; settings: Homo sapiens, WI-38; Table 2; lung tissue fibroblast; read-out: Half maximal inhibitory concentration (IC50), Normal Cell Line WI38
Protocol: (§1) To determine cytotoxicity at a therapeutically more relevant concentration, cells were treated at a single concentration of […] (FIG. 12).
(§2) Cell lines were cultured in a humidified atmosphere containing 10% CO2 in Dulbecco's modified Eagle's medium (Mediatech, Inc) supplemented with 10% fetal bovine serum (Atlanta Biologicals). Cell types used MEFs, HT1080 (human fibrosarcoma cells), NARF2 (osteosarcoma), WI-38 (human embryonic lung fibroblast), MDA MB 231 (breast cancer), HCT-116 (human colon), and NCI-H522 (Non-Small Cell Lung Cancer) cell lines. To determine viability throughout these examples, 5,000 cells were plated per well of a 96-well plate and drugs were added 1 day later. Cells were stained 1 to 3 days later with a saturated solution of methylene blue in 50% ethanol. Plates were rinsed and retained dye was quantified by spectrophotometry. Absorbance was normalized to DMSO and given as 1 or 100% for cell viability. Results are representative of at least two independent experiments. Statistical significance was assessed using the Student's t test. All commercially available chemicals were obtained from Cayman Chemicals unless otherwise noted.

[2] = tested on: ovarian cancer cell line IGROV1; assay: NCI 60 cell line assay, single dose, IGROV1; assay type: cell-based, human; settings: single dose of 10 μM
Protocol: (§3) The cell lines used in this assay belonged to leukemia, non-small-cell lung cancer, colon cancer, CNS cancer, melanoma, ovarian cancer, renal cancer, prostate cancer, and breast cancer. The compounds were first tested at a single dose of 10 μM. Analogue 20a was the most cytotoxic with a mean percentage growth of 1.24 (FIG. 13A). […] Analogs 20a and 23 were further tested in the NCI dose response assay ([…]).

[3] = tested on: NCI-H522 GFP-SLC7A11 #8 cells; assay: Cytotoxicity (methylene blue cell viability), NCI-H522 clone overexpressing GFP-SLC7A11; assay type: cell-based, human; settings: Homo sapiens; Table 1; NCI-H522 clone overexpressing GFP-tagged SLC7A11; read-out: Half maximal inhibitory concentration (IC50), NCI-H522 GFP-SCL7A11 #8
Protocol: (§4) Having synthesized the CETZOLE analogs, their cytotoxic activity was evaluated. […] NCI-H522 RV-GFP is the corresponding control with RV-GFP tag, but without SLC7A11 overexpression. […] The cytotoxicity screening was conducted as described previously.
as §2

[4] = tested on: NARF2 cells; assay: Cytotoxicity (methylene blue cell viability), NARF2; assay type: cell-based, human; settings: Homo sapiens; Table 1; NARF2 osteosarcoma cells; read-out: Half maximal inhibitory concentration (IC50), NARF2
Protocol: as §4, §2

[5] = tested on: NCI-H522 cells; assay type: cell-based; settings: human, 3 days
Source text: FIGS. 10A-10C: Results of live cell imaging.
FIG. 16: Evaluation of ferroptosis-inducing character of CETZOLE probes. A three-day ferroptosis rescue assay of NCI-H522 cells treated with DMSO, 1, RSL3, and CETZOLE analogs, and liproxstatin-1 co-treatment, showing significant ferroptosis inducing probes.
The live cell montage images in FIG. 10A show notable ferroptosis-related morphological changes, such as membrane breakage and floating cell debris in the medium. The NCI-H522 cell viability improved overall when cells were co-treated with the radical scavenger liproxstatin-1 (FIG. 10C). […] To confirm this, flow-cytometry was performed to quantify lipid peroxidation using redox-active BODIPY-C11 (FIGS. 11A-11E).
Overall, CETZOLE probes do induce radical-mediated cell death and are therefore indeed ferroptotic agents.
as §2, with “noted. Compound CETZOLE 1 and the analogs were synthesized as highlighted.” for “noted.”

[6] = tested on: NCI-H522 cells; assay: Cytotoxicity (methylene blue cell viability), NCI-H522; assay type: cell-based, human; settings: Homo sapiens
Protocol: as §4, §2

[7] = tested on: 60 human cancer cell lines; assay: NCI 60 human cancer cell line assay, single dose; assay type: cell-based; settings: single dose of 10 μM, 60 cell lines
Protocol: (§5) The cell lines used in this assay belonged to leukemia, non-small-cell lung cancer, colon cancer, CNS cancer, melanoma, ovarian cancer, renal cancer, prostate cancer, and breast cancer. The compounds were first tested at a single dose of 10 μM.

[8] = tested on: NCI-H522 RV-GFP cells; assay: Cytotoxicity (methylene blue cell viability), NCI-H522 RV-GFP control clone; assay type: cell-based, human; settings: Homo sapiens, NCI-H522; Table 1; control clone with RV-GFP tag; read-out: Half maximal inhibitory concentration (IC50), NCI-H522 Rv-GFP
Protocol: as §4, §2

[9] = tested on: MDA-MB-231 cells; assay: Cytotoxicity (methylene blue cell viability), MDA-MB-231; assay type: cell-based; settings: Homo sapiens
Protocol: as §4, §2

[10] = tested on: HT-1080 cells; assay: Cytotoxicity (methylene blue cell viability), HT-1080; assay type: cell-based, human; settings: Homo sapiens
Protocol: as §4, §2

[11] = tested on: leukemia, ovarian cancer, and renal cancer cell lines; assay: NCI dose response assay; assay type: cell-based, human
Protocol: as §5

[12] = tested on: MEFs (Mouse Embryonic Fibroblasts); assay: Cytotoxicity on normal cell line MEFs; assay type: cell-based; settings: Fibroblast; Table 2; Mouse Embryonic Fibroblasts; read-out: Half maximal inhibitory concentration (IC50), Normal Cell Line Mefs
Protocol: as §1, §2

[13] = tested on: renal cancer cell line 786-0; assay: NCI 60 cell line assay, single dose, 786-0; assay type: cell-based, human; settings: single dose of 10 μM
Protocol: as §3

[14] = tested on: NCI-H522 and HT-1080 cancer cell lines, WI38 and MEFs normal cell lines; assay: Selective cytotoxicity assay at a single concentration; assay type: cell-based; parameters: dose or concentration left out as unconfirmed; settings: NCI-H522, HT-1080, WI38, MEFs
Protocol: Overall, WI38 cells were the most tolerant to the treatment, whereas MEF cells were partially tolerant and relatively less sensitive than both NCI-H522 and HT-1080 cells. To determine cytotoxicity at a therapeutically more relevant concentration, cells were treated at a single concentration of […] (FIG. 12).
as §2, with “noted. Compound CETZOLE 1 and the analogs were synthesized as highlighted.” for “noted.”

[15] = tested on: renal cancer cell line UO-31; assay: NCI 60 cell line assay, single dose, UO-31; assay type: cell-based, human; settings: single dose of 10 μM
Protocol: as §3

[16] = tested on: NCI-H522, HT-1080, and MDA-MB-231 cells; assay: Cytotoxicity screening of CETZOLE probes and negative controls; assay type: cell-based; settings: 20 μM maximum concentration
Source text: The benzophenone bromo-alkane 28e was obtained by selective EDC coupling of diaminobenzophenone 31 with 4-pentynoic acid 32 to obtain amide 33, followed by dropwise addition of bromoacetyl bromide 30 to a solution of 33 and TEA in DCM. To obtain intermediate 28f, Boc-protection of methyl 2-amino-5-bromobenzoate 34 to get 35, followed by installing an azide group at the para position employing Markiewicz and Helquist conditions, gave the azide 36. This was subjected to saponification followed by EDC coupling with propargyl amine 38 to obtain 39. Boc deprotection to get 40 was followed by acylation of the resulting amine with bromoacetyl bromide 30 afforded the bromo alkane 28f. They were screened for activity on NCI-H522, HT-1080, and MDA-MB-231 cells prior to using in target identification.
A similar cytotoxicity trend was observed on HT-1080 and MDA-MB-231 cancer cell lines.
Cell lines were cultured in a humidified atmosphere containing 10% CO2 in Dulbecco's modified Eagle's medium (Mediatech, Inc) supplemented with 10% fetal bovine serum (Atlanta Biologicals). […] Plates were rinsed and retained dye was quantified by spectrophotometry. Absorbance was normalized to DMSO and given as 1 or 100% for cell viability. […] Statistical significance was assessed using the Student's t test. […]

[17] = tested on: HeLa cells; assay: Cellular localization of probes by bio-imaging; assay type: cell-based; settings: 37° C. one hour, TAMRA-PEG-3-azide click
Protocol: FIGS. 17A-17E: Cellular localization of CETZOLE probes. […] Cells were incubated with the respective agent, permeabilized, subjected to TAMRA-PEG3 azide ligation, and viewed under microscope.
The thiazole alkyne pharmacophore undergoes thiol addition. Therefore, PPd is believed to interact covalently with the target protein, and the propargyl alkyne serves as a clickable bio-orthogonal handle for attaching reporter tags. On the other hand, PPe has a photoactivatable benzophenone moiety that covalently binds to the target protein(s) upon photo irradiation. Bio-imaging experiments were conducted to determine the spatial localization of CETZOLE probes in HeLa cells using fluorescent reporter tags. For this, HeLa cells were incubated with probe PPd and the negative control NPd (FIG. 17A) at 37° C. for one-hour. The cells were washed with cold PBS, fixed with formaldehyde (5%), permeabilized with triton-X, and subjected to bioorthogonal click reaction with TAMRA-PEG-3-azide in the presence of tris-hydroxypropyltriazolylmethylanine (THPTA), copper (II) sulfate (CuSO4), and sodium ascorbate. After multiple washings, cells were transferred on to a microscope viewing slide, stained with Hoechst dye, and observed under Olympus microscope (FIGS. 17C-17E).

[18] = NCI-H522, Table 3, probes and negative controls, read-out: IC50, NCI-H522
[19] = MDA-MB-231, Table 3, probes and negative controls, read-out: IC50, MDA-MB-231
[20] = HT-1080, Table 3, probes and negative controls, read-out: IC50, HT-1080

## C#Cc1nc(C2=C(C)C(OC(C)=O)/C(=N/OC(C)=O)C2)cs1 (centres unmarked) [compound 20a, (E)-5-(Acetoxyimino)-3-(2-ethynylthiazol-4-yl)-2-methylcyclopent-2-en-1-yl acetate]
[1]
  IC50: 1530 ± 360 nM
[2]
  percentage growth, IGROV1: −95%
[3]
  IC50: 1590 ± 490 nM
[4]
  IC50: 7260 ± 2010 nM
[5]
  cell viability on liproxstatin-1 co-treatment (rescue): 60%
[6]; NCI-H522, Table 2, read-out: Half maximal inhibitory concentration (IC50), Cancer Cell Line NCI-H522
  IC50: 170 ± 80 nM
[6]; Table 1, NCI-H522 cancer cell line, read-out: Half maximal inhibitory concentration (IC50), NCI-H522
  IC50: 170 ± 80 nM
[7]
  mean percentage growth: 1.24
[8]
  IC50: 260 ± 110 nM
[9]; Table 1, MDA-MB-231 breast cancer cell line, read-out: Half maximal inhibitory concentration (IC50), MDA-MB-231
  IC50: 230 ± 20 nM
[10]; HT-1080, Table 2, read-out: Half maximal inhibitory concentration (IC50), Cancer Cell Line HT1080
  IC50: 140 ± 60 nM
[10]; Table 1, HT-1080 fibrosarcoma cell line, read-out: Half maximal inhibitory concentration (IC50), HT-1080
  IC50: 140 ± 60 nM
[11]
  sensitivity of cell lines in dose response assay: particularly sensitive
[12]
  IC50: 120 ± 60 nM
[13]
  percentage growth, 786-0: −95%
[14]
  cell death at a single concentration: killed only the cancer cell lines NCI-H522 and HT-1080
[15]
  percentage growth, UO-31: −95%

## C#Cc1nc(C2=C(C)C(=O)/C(=N/OCC(=O)Nc3ccc4oc(=O)c(C)cc4c3)C2)cs1 [PPc, (E)-2-(((4-(2-Ethynylthiazol-4-yl)-3-methyl-2-oxocyclopent-3-en-1-ylidene)amino)oxy)-N-(3-methyl-2-oxo-2H-chromen-6-yl)acetamide]
[6]; [18]
  IC50: > 20000 nM
[16]
  cytotoxicity at maximum concentration tested: did not induce any cytotoxicity
[9]; [19]
  IC50: > 20000 nM
[10]; [20]
  IC50: > 20000 nM

## C#CCO/N=C1\CC(c2csc(C#C)n2)=C(C)C1O (centres unmarked) [PPd, 4-(2-Ethynylthiazol-4-yl)-2-hydroxy-3-methylcyclopent-3-en-1-one 0-prop-2-yn-1-yl oxime]
[17]
  spatial localization of probe: intense intracellular aggregation of probe in the nucleus and vacuoles
[5]
  cell viability on liproxstatin-1 co-treatment (rescue): 75%
[6]; [18]
  IC50: 2310 ± 1080 nM
[9]; [19]
  IC50: 2700 ± 720 nM
[10]; [20]
  IC50: 1170 ± 120 nM
